From patent US9880151B2, “Method of determining, identifying or isolating cell-penetrating peptides” (Phylogica Limited, priority 2011, dated 2018)

How the values were obtained:
[1] = system: bEnd.3 mouse brain endothelial cells; test: Fluorescent microscopy assessment of CPP internalisation; format: cell-based; details: 10 μM, CM and SF (FIGS. 25-28)
Experimental: (§1) CHO-K1 cells are seeded at 70,000 cells/slide chamber, and bEnd.3 cells are seeded at 40,000 cells/slide chamber. Cells are cultured for 24 h at 37° C. in 5% CO2, washed with PBS 1×, and FITC-labeled peptide (10 uM) is added to cells in 10% FBS (CM).
(§2) Alternatively, cells in serum-free (SF) medium are incubated for 1 h at 37° C., washed twice in PBS, fixed in 10% formaladehyde/PBS (15 min at RT), washed as before, incubated in, 300 nM DAPI/PBS solution for […] at RT, washed as before, and mounted onto slides.

CHO-K1 cells [2] = test: as above; format: cell-based, Chinese hamster; details: 10 μM, CM and SF (FIGS. 30-32)
Experimental: as §1, §2

CHO-K1 cells [3] = test: Flow cytometry analysis of FITC-labelled peptide cell binding/uptake; format: cell-based, Chinese hamster; details: for cellular uptake into CHO-K1: 37° C. and 4° C. (FIG. 34); for cellular uptake into CHO-K1 cells measured using FITC: FIG. 36
Experimental: (§3) CHO-K1 and bEnd.3 cells were seeded in 6-well plates at 5×10^5 cells/well in culture medium and incubated for 24 h at 37° C. in 5% CO2. Culture media was aspirated, and cells washed once with PBS to remove debris. Then, 1 mL of media containing 10 or 20 μM of FITC-peptide was added to wells, and plates were incubated for 1 h at 37° C. in 5% CO2. The cells were washed twice with 1×PBS, and 1 mL of 0.25% trypsin/EDTA added per well, and incubated at 37° C. for 4 min. Reactions were stopped by dilution of trypsin with 2 mL complete media. Cells were dislodged by gentle titration and transferred to flow cytometry tubes, washed twice with FACS buffer (0.5% BSA/0.01% NaN3/PBS), collected by centrifugation for 4 min at 1500 rpm, and resuspended in 0.3 mL fixing buffer solution (1% formaldehyde in PBS). Cells were filtered through gauze before reading on BD LSRII flow cytometer.
(§4) Cells were seeded in 6-well plates and then grown for 24 hours before peptide was added for 1 hour at 37° C. Cells were harvested via trypsinization, and then assayed for peptide internalization/binding by flow cytometry.
(§5) The flow cytometry procedure was initially optimized using fluorophore-labelled TAT-PYC38. Subsequently, FITC-labelled peptides from the Phase 1-Pilot and Phase 2-CPP screens were assessed at 10 μM concentrations for internalization using CHO and bEnd3 cells. Peptides that scored as positive in the cell binding/internalization assay were subjected to further analysis using different temperatures and cell lines to determine cell selectivity. The cell-binding/uptake activity of pure (>85% purity) and Pepset (purity ranges from 40-80%) peptides was also compared to determine whether peptide purity affected CPP activity.

bEnd.3 cells = test: as above; format: cell-based, mouse; details: FIG. 36
Experimental: as §3, §4, §5

CHO or bEnd.3 cells = test: Live confocal microscopy screen for cell internalization, cell line not specified per result; format: cell-based; details: for cellular uptake by confocal microscopy: 10 μM (FIG. 20)
Experimental: (§6) bEnd.3 and CHO-K1 cells were seeded at 3×10^4/well and 5×10^4/well respectively, on 8-well Lab-Tek H chambered coverglass slides. Slides were incubated for 24 h prior to analysis at 37° C. at 5% CO2. Wells were washed twice with medium containing 1% FBS, and 5-10 μM FITC-labeled peptide in 1% FBS media was added to wells, and cells were imaged at 30 and 60 minutes later.
(§7) Briefly, bEnd.3 and CHO cells were seeded at subconfluent density (˜50%) on 8-well chambered coverglasses, incubated for 24 hrs, washed with culture medium containing 1% FBS and then incubated with 5-30 μM of labelled peptide for 1 hr in culture media containing 1% FBS before being imaged using confocal microscopy.

[4] = system: primary cortical neuronal cultures; test: Glutamate excitotoxicity assay, neuroprotection by CPP-PYC36 fusions; format: cell-based; details: PYC36 alone, data not shown
Experimental: Peptides ID 4052 (SEQ ID NO: 16; Table 10), Peptides ID 4052a (SEQ ID NO: 26; Table 10), and TAT peptide ([…]; SEQ ID NO: 28) were each produced as fusions to the neuroprotective peptide PYC36 ([…]; SEQ ID NO: 29) described in WO 2008/034161. The fusion peptides were assayed for their ability to confer survival on primary cortical neuronal cultures by glutamate excitotoxicity assay as described in Example of WO 2008/034161.

CHO-K1 cells [5] = test: Live confocal microscopy of FITC-labelled peptides; format: cell-based, Chinese hamster; details: 60 minutes (FIG. 18)
Experimental: as §6, §7

cells = test: Flow cytometry optimisation with FITC-labelled PYC38 (+/-TAT); format: cell-based; details: FITC-labelled peptide
Experimental: as §4, §5

endosome = details: Sugita et al. 2008; cited from earlier work

| Substance | internalisation into bEnd.3 cells, fluorescent microscopy [1] | internalisation into CHO-K1 cells, fluorescent microscopy (CHO-K1 cells [2]) | cellular uptake into bEnd.3 cells measured using FITC (bEnd.3 cells) | cellular uptake into CHO-K1 cells measured using FITC (CHO-K1 cells [3]) | also measured |
| --- | --- | --- | --- | --- | --- |
| 0045 (PFLKRVPACLRLRR) [compound 0045] | evidence for internalisation of the peptide into bEnd.3 cells | evidence for internalisation of the peptide into CHO-K1 cells |  |  | cellular uptake into CHO-K1 (CHO-K1 cells [3]): high uptake |
| 4052 (WGCCGRSSRRRRTR) [compound 4052] |  |  | high uptake | high uptake |  |
| 5008 (PYSRPHVQLWYPNRESCRSLIRSLGP) [compound 5008] | evidence for internalisation of the peptide into bEnd.3 cells | evidence for internalisation of the peptide into CHO-K1 cells | high uptake | high uptake |  |
| 9170 (RCGRASRCRVRWMRRRRI) [compound 9170] | evidence for internalisation of the peptide into bEnd.3 cells | evidence for internalisation of the peptide into CHO-K1 cells | high uptake | high uptake | cellular uptake by confocal microscopy (CHO or bEnd.3 cells): evidence for cellular uptake; cellular uptake into CHO-K1 (CHO-K1 cells [3]): high uptake |
| GLQGRRRQGYQSIKP (GLQRRRQGYQSIKP) [PYC36, neuroprotective peptide described in WO 2008/034161] |  |  |  |  | neuroprotective activity following glutamate induced neural damage [4]: negligible neuroprotective activity |
| RFRCGRRKWQIGS [Peptide ID 9072, arginine-rich TAT-like CPP from non-coding region] |  |  |  |  | cellular uptake by confocal microscopy (CHO or bEnd.3 cells): evidence for cellular uptake; uptake into CHO-K1 cells, flow cytometry curve (CHO-K1 cells [3]; 10 μM, 37° C., vs PYC38-TAT positive control (FIG. 15)): largely overlaps with that for the positive control |
| WTISSRRRKVNRAC [Peptide ID 4063, arginine-rich TAT-like CPP from non-coding region] |  |  |  |  | uptake into CHO-K1 cells by confocal microscopy (CHO-K1 cells [5]; 10 μM peptide): evidence of the uptake; uptake into CHO-K1 cells by confocal microscopy (CHO-K1 cells [5]; 30 μM peptide): uptake |
| rhaplarGswrGqpqqGpqrrGqlGG [PYC38, reference compound] |  |  |  |  | level of cell binding/internalization, PYC38-TAT versus PYC38 (cells): significantly lower; uptake into CHO-K1 cells by confocal microscopy (CHO-K1 cells [5]; 5 μM peptide): no detectable evidence of uptake; uptake by confocal microscopy, control peptides (CHO or bEnd.3 cells; 5-30 μM labelled peptide, 1 hr): no uptake |
| transferrin: named in cited endosome escape study |  |  |  |  | efficiency of endosome escape (endosome): low |
